Holding throughout (type): ADME
For one series, the target named is T1, Cytochrome P450 1A1 (Homo sapiens, UniProt P04798).
T1 sequence (P04798 whole entry): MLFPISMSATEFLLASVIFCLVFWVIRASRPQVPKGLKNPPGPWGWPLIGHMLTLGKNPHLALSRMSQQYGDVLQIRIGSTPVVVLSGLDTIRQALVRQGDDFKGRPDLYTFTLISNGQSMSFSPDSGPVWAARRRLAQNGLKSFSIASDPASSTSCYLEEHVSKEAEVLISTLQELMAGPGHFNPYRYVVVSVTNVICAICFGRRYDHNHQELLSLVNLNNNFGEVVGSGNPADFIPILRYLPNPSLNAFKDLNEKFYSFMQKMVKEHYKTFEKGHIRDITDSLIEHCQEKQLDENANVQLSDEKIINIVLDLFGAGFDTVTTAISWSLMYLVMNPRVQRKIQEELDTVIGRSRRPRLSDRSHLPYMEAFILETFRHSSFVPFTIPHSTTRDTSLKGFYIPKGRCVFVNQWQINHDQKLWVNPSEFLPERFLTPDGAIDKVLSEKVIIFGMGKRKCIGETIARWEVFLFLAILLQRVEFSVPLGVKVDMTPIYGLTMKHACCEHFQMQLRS
The series is described as follows: Activity of human recombinant CYP1A1 assessed as enzyme-mediated 2-hydroxyethyl (1R,3aR,4aR,6R,8aR,9S,9aS)-9-((E)-2-(5-(3-fluorophenyl)pyridin-2-yl)vinyl)-1-methyl-3-oxododecahydronaphtho[2,3-c]furan-6-ylcarbamate formation at 25 uM after 120 mins by LC-MS/MS analysis in presence of NADPH. To be noted: 2 h.

In a further series the target is Cytochrome P450 2D6 (Homo sapiens, UniProt P10635). The series is described as follows: Activity of human recombinant CYP2D6 assessed as enzyme-mediated 2-hydroxyethyl (1R,3aR,4aR,6R,8aR,9S,9aS)-9-((E)-2-(5-(3-fluorophenyl)pyridin-2-yl)vinyl)-1-methyl-3-oxododecahydronaphtho[2,3-c]furan-6-ylcarbamate formation at 25 uM after 120 mins by LC-MS/MS analysis in presence of NADPH. To be noted: 2 h.

In the next series the target is Cytochrome P450 3A5 (Homo sapiens, UniProt P20815). Kind of series: Activity of human recombinant CYP3A5 assessed as enzyme-mediated (3R,3aS,4S,4aR,7R,8aR,9aR)-7-amino-4-((E)-2-(5-(3-fluorophenyl)pyridin-2-yl)vinyl)-3-methyldecahydronaphtho[2,3-c]furan-1(3H)-one formation at 25 uM after 120 mins by LC-MS/MS analysis in presence of NADPH. To be noted: 2 h.
For series [1], the system named is Liver microsome. The series is described as follows: Intrinsic clearance in human liver microsomes assessed as (3R,3aS,4S,4aR,7R,8aR,9aR)-7-amino-4-((E)-2-(5-(3-fluorophenyl)pyridin-2-yl)vinyl)-3-methyldecahydronaphtho[2,3-c]furan-1(3H)-one formation by measuring Vmax/Km per nmol of enzyme after 120 mins by LC-MS/MS analysis. To be noted: 2 h. (Liver microsomes are a subcellular fraction often used to study metabolism.)

The next series concerns the target Cytochrome P450 4F2 (Homo sapiens, UniProt P78329). Kind of series: Activity of human recombinant CYP4F2 assessed as enzyme-mediated drug metabolism treated with 25 uM vorapaxar after 120 mins by LC-MS/MS analysis in presence of NADPH. To be noted: 2 h.
Series [2] can be described thus: Drug level in human intestine microsomes treated with 25 uM vorapaxar after 120 mins by LC-MS/MS analysis in presence of NADPH. To be noted: 2 h.
Another series has as its target T2, Cytochrome P450 2J2 (Homo sapiens, UniProt P51589).
T2 sequence (P51589 whole entry): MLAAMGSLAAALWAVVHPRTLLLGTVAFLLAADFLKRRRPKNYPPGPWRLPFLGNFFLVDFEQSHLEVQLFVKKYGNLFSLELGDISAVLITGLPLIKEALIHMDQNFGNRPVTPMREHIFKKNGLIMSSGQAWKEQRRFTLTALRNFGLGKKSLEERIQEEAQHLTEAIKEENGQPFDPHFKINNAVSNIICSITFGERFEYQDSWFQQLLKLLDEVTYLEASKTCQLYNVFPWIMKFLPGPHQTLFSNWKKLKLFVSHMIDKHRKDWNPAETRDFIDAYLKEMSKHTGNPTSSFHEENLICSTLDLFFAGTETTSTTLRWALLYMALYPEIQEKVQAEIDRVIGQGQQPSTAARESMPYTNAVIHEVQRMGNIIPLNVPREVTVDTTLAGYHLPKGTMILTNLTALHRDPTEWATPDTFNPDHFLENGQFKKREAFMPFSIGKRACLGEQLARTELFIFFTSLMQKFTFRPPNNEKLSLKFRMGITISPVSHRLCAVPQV
The series is described as follows: Drug metabolism assessed as human recombinant CYP2J2-mediated 2-hydroxyethyl (1R,3aR,4aR,6R,8aR,9S,9aS)-9-((E)-2-(5-(3-fluorophenyl)pyridin-2-yl)vinyl)-1-methyl-3-oxododecahydronaphtho[2,3-c]furan-6-ylcarbamate formation at 25 uM after 120 mins by LC-MS/MS analysis in presence of astemizole. To be noted: recombinant enzyme, 2 h.

Series [3] is described as follows: Drug metabolism in human liver microsomes assessed as compound remaining at 10 uM after 120 mins by LC-MS/MS analysis in presence of NADPH. To be noted: read-out: Compound recovery.
The target of series [4] is T3, Cytochrome P450 3A4 (Homo sapiens, UniProt P08684). Kind of series: Activity of human recombinant CYP3A4 assessed as enzyme-mediated ((4aR,6R)-9-{2-[(1R,4S)-5-((S)-3-Fluoro-phenyl)-pyridin-2-yl]-vinyl}-1-methyl-3-oxo-dodecahydro-naphtho[2,3-c]furan-6-yl)-carbamic acid(R)-2-hydroxy-ethyl ester formation at 10 uM after 120 mins by LC-MS/MS analysis in presence of astemizole. To be noted: 2 h.

Series [5] concerns the target T3, Cytochrome P450 3A4. Kind of series: Drug metabolism assessed as human recombinant CYP3A4-mediated 2-hydroxyethyl (1R,3aR,4aR,6R,8aR,9S,9aS)-9-((E)-2-(5-(3-fluorophenyl)pyridin-2-yl)vinyl)-1-methyl-3-oxododecahydronaphtho[2,3-c]furan-6-ylcarbamate formation at 25 uM after 120 mins by LC-MS/MS analysis in presence of ketoconazole. To be noted: recombinant enzyme, 2 h.

Series [6] relates to Liver microsome. The series is described as follows: Drug metabolism in human liver microsomes assessed as (3R,3aS,4S,4aR,7R,8aR,9aR)-7-amino-4-((E)-2-(5-(3-fluorophenyl)pyridin-2-yl)vinyl)-3-methyldecahydronaphtho[2,3-c]furan-1(3H)-one formation at 10 to 25 uM after 120 mins by LC-MS/MS analysis in presence of sulfaphenazole. To be noted: 2 h.
The next series has as its target CYP2C19 (Homo sapiens, UniProt P33261). The series is described as follows: Activity of human recombinant CYP2C19 assessed as enzyme-mediated drug metabolism at 10 uM after 120 mins by LC-MS/MS analysis in presence of NADPH. To be noted: read-out: Compound recovery.
In a further series the target is CYP2D6 (Homo sapiens, UniProt P10635). Kind of series: Activity of human recombinant CYP2D6 assessed as enzyme-mediated drug metabolism at 10 uM after 120 mins by LC-MS/MS analysis in presence of NADPH. To be noted: read-out: Compound recovery.
The target of a further series is CYP3A4 (Homo sapiens, UniProt P08684). Kind of series: Activity of human recombinant CYP3A4 assessed as enzyme-mediated drug metabolism at 10 uM after 120 mins by LC-MS/MS analysis in presence of NADPH. To be noted: read-out: Compound recovery.
Chain of CYP3A4 (P08684 whole entry): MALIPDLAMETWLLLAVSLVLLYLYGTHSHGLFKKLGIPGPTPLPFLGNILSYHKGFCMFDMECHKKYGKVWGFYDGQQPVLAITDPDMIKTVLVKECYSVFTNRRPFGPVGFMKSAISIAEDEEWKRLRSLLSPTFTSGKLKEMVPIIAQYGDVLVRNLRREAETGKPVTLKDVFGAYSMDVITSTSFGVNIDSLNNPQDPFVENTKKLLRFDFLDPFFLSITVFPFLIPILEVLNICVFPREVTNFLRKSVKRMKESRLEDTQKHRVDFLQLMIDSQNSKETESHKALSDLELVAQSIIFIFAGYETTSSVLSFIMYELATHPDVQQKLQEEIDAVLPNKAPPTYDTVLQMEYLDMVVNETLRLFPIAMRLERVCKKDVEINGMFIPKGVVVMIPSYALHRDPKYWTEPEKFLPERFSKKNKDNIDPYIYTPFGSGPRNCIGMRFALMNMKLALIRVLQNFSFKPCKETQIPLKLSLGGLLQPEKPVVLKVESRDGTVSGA

T3 sequence (P08684 whole entry): as above
Chain of Cytochrome P450 4F2 (P78329 whole entry): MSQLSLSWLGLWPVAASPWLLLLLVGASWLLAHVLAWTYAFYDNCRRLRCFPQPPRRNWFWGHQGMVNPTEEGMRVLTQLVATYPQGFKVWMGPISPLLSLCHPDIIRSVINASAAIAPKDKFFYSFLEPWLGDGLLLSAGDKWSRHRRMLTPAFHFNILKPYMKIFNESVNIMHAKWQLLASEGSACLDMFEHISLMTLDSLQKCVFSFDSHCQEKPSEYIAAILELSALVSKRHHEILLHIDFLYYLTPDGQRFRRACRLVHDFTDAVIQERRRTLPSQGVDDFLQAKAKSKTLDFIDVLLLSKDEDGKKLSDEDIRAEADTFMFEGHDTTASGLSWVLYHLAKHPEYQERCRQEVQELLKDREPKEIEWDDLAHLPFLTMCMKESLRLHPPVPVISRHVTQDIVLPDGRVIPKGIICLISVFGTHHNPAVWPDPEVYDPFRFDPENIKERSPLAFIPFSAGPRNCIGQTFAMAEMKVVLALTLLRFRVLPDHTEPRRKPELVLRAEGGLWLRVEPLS
Chain of CYP2C19 (P33261 whole entry): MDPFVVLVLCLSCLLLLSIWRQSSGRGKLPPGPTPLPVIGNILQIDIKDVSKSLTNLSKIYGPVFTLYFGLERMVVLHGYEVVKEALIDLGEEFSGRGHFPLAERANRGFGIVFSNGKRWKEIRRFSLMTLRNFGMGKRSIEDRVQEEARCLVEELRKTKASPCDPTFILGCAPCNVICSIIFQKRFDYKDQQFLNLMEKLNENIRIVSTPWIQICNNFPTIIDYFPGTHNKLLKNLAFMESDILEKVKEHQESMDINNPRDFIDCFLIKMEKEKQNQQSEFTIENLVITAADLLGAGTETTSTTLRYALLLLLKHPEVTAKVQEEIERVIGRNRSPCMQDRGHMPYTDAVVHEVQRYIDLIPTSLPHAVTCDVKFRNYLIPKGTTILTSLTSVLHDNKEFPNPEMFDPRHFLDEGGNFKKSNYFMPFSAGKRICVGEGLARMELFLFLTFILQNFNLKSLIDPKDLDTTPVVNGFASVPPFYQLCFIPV
Chain of Cytochrome P450 3A5 (P20815 whole entry): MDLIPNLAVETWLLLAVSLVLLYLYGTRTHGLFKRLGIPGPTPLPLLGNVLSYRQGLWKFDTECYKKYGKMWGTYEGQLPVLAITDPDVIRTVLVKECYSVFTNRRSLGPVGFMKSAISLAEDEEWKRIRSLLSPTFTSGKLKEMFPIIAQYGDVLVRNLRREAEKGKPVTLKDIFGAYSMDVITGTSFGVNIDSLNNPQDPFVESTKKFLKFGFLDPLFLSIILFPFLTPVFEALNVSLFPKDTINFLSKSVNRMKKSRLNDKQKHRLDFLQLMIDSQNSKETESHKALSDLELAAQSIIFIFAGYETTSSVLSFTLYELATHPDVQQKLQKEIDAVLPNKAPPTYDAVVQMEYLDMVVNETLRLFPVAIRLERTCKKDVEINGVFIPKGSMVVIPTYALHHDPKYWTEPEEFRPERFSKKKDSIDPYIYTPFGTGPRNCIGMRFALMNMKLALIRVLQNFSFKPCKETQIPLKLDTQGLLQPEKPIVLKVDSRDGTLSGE
Chain of CYP2D6 (P10635 whole entry): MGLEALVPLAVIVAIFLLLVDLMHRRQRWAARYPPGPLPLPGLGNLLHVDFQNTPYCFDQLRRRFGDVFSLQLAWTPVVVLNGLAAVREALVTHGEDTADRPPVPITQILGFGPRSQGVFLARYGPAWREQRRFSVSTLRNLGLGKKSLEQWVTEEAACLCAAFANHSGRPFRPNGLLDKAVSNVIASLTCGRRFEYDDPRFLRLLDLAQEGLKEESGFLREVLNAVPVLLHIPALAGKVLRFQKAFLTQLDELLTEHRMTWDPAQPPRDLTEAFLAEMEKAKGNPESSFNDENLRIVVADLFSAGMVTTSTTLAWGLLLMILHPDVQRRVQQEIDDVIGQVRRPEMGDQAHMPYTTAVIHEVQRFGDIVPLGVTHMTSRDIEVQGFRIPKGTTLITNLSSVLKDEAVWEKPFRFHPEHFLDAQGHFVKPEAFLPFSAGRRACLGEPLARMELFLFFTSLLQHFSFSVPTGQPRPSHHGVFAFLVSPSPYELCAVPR
Chain of Cytochrome P450 2D6 (P10635 whole entry): as above

Regarding `CCOC(=O)N[C@@H]1CC[C@@H]2[C@@H](C1)C[C@H]1C(=O)O[C@H](C)[C@H]1[C@H]2/C=[14CH]/c1ccc(-c2cccc(F)c2)cn1`, the Drug metabolism entry on Cytochrome P450 1A1, at Cytochrome P450 2D6 and at Cytochrome P450 3A5 was “metabolite_detected” each time. In the series on Liver microsome [1], the CLH stood at 2.46 µL/min.

As for `C[C@H]1OC(=O)[C@@H]2C[C@@H]3C[C@H](NC(=O)OCCO)CC[C@H]3[C@H](/C=C/c3ccc(-c4cccc(F)c4)cn3)[C@H]12`, the Drug metabolism entry (at Cytochrome P450 4F2; in series [2]) was “metabolite_detected” throughout.

As for `CCOC(=O)N[C@@H]1CC[C@@H]2[C@@H](C1)C[C@H]1C(=O)O[C@H](C)[C@H]1[C@H]2/C=C/c1ccc(-c2cccc(F)c2)cn1` [VORAPAXAR], the figures for the Drug metabolism entry at Cytochrome P450 2J2, at Cytochrome P450 3A4 [5] and in the series on Liver microsome [6] were “metabolite_not_detected”, “metabolite_not_detected” and “metabolite_detected”, respectively. Moreover, the remaining at 2 h, 10 µM came out at 92.7% in series [3], 94.1% at CYP2C19, 98.1% at CYP2D6 and 72.5% at CYP3A4. The “inhibition (INH)” value at Cytochrome P450 3A4 [4] was 76%.
